# Experimental data as given in US6924301B1, “Composition for treating or preventing arrhythmia” (Shionogi & Co., Ltd., priority 1999, dated 2005).
# Legend:
# cPLA2 = molecular target: T1, cPLA2 (Homo sapiens, UniProt P47712); assay: cPLA2 inhibitory activity; type: biochemical; conditions: for IC50: 1-palmitoyl-2-[14C]-arachidonoyl-sn-glycero-3-phosphocholine liposomes, 15 min at 37° C.
# T1 sequence (P47712 1-749): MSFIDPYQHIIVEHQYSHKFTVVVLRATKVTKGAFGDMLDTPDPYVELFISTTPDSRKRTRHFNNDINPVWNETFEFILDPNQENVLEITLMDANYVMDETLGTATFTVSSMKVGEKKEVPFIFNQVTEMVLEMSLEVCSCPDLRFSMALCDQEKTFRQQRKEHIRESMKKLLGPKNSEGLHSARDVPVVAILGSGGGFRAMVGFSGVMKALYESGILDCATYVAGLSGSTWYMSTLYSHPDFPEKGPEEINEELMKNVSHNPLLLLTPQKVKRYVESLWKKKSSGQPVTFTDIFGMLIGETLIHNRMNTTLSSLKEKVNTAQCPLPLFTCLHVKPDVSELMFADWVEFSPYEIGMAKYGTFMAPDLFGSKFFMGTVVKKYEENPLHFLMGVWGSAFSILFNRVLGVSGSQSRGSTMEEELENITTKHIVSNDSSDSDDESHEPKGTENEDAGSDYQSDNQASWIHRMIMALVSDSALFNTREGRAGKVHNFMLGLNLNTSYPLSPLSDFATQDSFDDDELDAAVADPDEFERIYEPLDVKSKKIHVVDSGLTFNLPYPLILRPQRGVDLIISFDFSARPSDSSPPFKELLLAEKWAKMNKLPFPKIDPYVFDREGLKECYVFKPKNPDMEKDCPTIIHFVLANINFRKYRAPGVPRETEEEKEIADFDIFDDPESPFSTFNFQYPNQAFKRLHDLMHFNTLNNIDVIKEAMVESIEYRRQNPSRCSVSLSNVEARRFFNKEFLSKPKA
# Experimental: The compounds of the present invention were tested for the cPLA2 inhibitory activity according to the method disclosed in […]. Roberts, […], and J. E. Putnam, J. Biol. Chem., 1991, 266, 5268-5272 as outlined below. […] The reaction mixture includes 50 mM HEPES buffer (pH 7.5), 1 mM calcium chloride, 150 mM sodium chloride, 0.1 mg/ml bovine serum albumin, and 1.7 mM dithiothreitol. To the reaction mixture was added the compound of the present invention and the substrate solution. The reaction was allowed to start by adding an enzyme and continued for 15 min at 37° C. The fatty acids released by the reaction were extracted by the method described in V. P. Dole, and H. Meinertz, J. Biol. Chem., 1960, 235, 2595-2599 and its radiation activity was measured on a liquid scintillation counter. Control was obtained by conducting the experiment in the same manner except that a compound of the present invention was not added.
# Wistar male rats = assay: Arrhythmia induced by ischemia-reperfusion (coronary ligation 3 min, 10 min reperfusion) in anesthetized rats; type: in vivo, rat; conditions: for ventricular fibrillation / ventricular tachycardia: total duration during 10 min reperfusion, mean±S.D.; for effect on ventricular tachycardia induced by ischemia-reperfusion: summary in words of Tables 11 and 12, vs vehicle
# Experimental: The utility of the present invention for treating or preventing arrhythmia was confirmed in a manner similar to that described in Circulation Research 56: 545-548, 1984.
# Wistar male rats are used as experimental animals. Anesthesia of animal is induced by administration of 30 mg/kg to 60 mg/kg, preferably 40 mg/kg of pentobarbital sodium (preferably intraperitoneal injection). A catheter for the administration of drugs is placed in the jugular vein. Electrocardiogram (ECG) is recorded from lead II during cardiac ischemia and reperfusion. A thoracotomy is performed under artificial ventilation. Left coronary artery is ligated with silicon tube for 3 to 5 min, preferably 3 min. Reperfusion is performed by cutting snare. Total duration of ventricular tachycardia and ventricular fibrillation during 5 to 30 min, preferably 10 min reperfusion are evaluated. Test compounds are dissolved in solvent containing 10% DMSO, 10% ethanol, 30% polyethylene glycol and 50% distilled water and sodium hydrocarbonate is added to the solution to adjust final concentration to 0 to 1%, preferably 0.5%. Drugs are administrated intravenously in bolus at 15 to 60 min, preferably 30 min before reperfusion followed by 30 to 40 min, preferably 40 min infusion.
# Wistar male rats (weight 250-350 g) were used. The compound (C-4) (the compound M-17 described in WO98/33797) and the compound (B-1) shown below were dissolved in solvent containing DMSO:ethanol:polyethylene glycol 300:1% aqueous sodium hydrogen carbonate solution=10:10:30:50 (volume ratio). Anesthesia was induced with intraperitoneal injection of 40 mg/kg of pentobarbital sodium. A catheter for the administration of drugs was placed in the jugular vein. Electrocardiogram (ECG) was recorded from lead II during cardiac ischemia and 10 min reperfusion. Drugs were administrated intravenously in bolus at 30 min before reperfusion followed by 40 min infusion. Solvent containing DMSO:ethanol:polyethylene glycol 300:1% aqueous sodium hydrogen carbonate solution=10:10:30:50 (volume ratio) was administrated as vehicle in a administration experiment. A thoracotomy was performed under artificial ventilation. Left coronary artery was ligated with silicon tube for 3 min. Reperfusion was performed by cutting snare. Total duration of ventricular tachycardia (VT) and ventricular fibrillation (VF) during 10 min reperfusion were evaluated.
# Data are expressed as mean±S.D. Statistical analysis was performed with Welch's t-test. A value of P<0.05 was considered significant. Compound (C-4) [drawing 73]
# [1] = Bolus (i.v.) + Infusion (i.v.) 0.001 mg/kg + 0.001 mg/kg/hr
# [2] = Bolus (i.v.) + Infusion (i.v.) 0.01 mg/kg + 0.01 mg/kg/hr
# [3] = Bolus (i.v.) + Infusion (i.v.) 0.1 mg/kg + 0.1 mg/kg/hr
Compound,IC50 (cPLA2) [nM],ventricular fibrillation (Wistar male rats; [1]) [s],ventricular tachycardia (Wistar male rats; [1]) [s],ventricular fibrillation (Wistar male rats; [2]) [s],ventricular tachycardia (Wistar male rats; [2]) [s],ventricular fibrillation (Wistar male rats; [3]) [s],ventricular tachycardia (Wistar male rats; [3]) [s],effect on ventricular tachycardia induced by ischemia-reperfusion (Wistar male rats),melting point [°C],"IC60 (cPLA2; 0.25 h, Table 10, same assay) [nM]"
O=C1NC(=O)/C(=C/c2ccc(C(=O)NC[C@@H]3C[C@@H](SC(c4ccccc4)(c4ccccc4)c4ccccc4)CN3C(=O)c3ccccc3C(=O)c3ccc(F)cc3F)cc2)S1 [Compound B-1],3.7,44.5 ± 133.3,54.8 ± 100.9,56.5 ± 169.5,31.1 ± 62.3,0.0 ± 0.0,0.4 ± 0.9,significantly reduced,158 to 160,–
CC(C)CN(C(c1ccccc1)c1ccccc1)[C@@H]1C[C@@H](CNC(=O)c2ccc(/C=C3\SC(=O)NC3=O)cc2)N(C(=O)c2ccccc2C(=O)c2ccc(F)cc2F)C1 [Compound C-4],–,15.1 ± 41.2,28.7 ± 50.3,1.6 ± 2.9,7.6 ± 9.4,0.2 ± 0.4,5.1 ± 9.3,significantly reduced,–,–
CC(C)CN(C1CC(CNC(=O)c2ccc(C=C3SC(=O)NC3=O)cc2)N(C(=O)c2cccc(F)c2C(=O)c2ccc(F)cc2F)C1)C(c1ccccc1)c1ccccc1 (stereo not drawn) [Compound A-6],4.5,–,–,–,–,–,–,–,–,–
O=C1NC(=O)/C(=C/c2ccc(/C=C/CNC(=O)[C@@H]3C[C@@H](SC(c4ccccc4)(c4ccccc4)c4ccccc4)CN3C(=O)c3ccccc3C(=O)c3ccc(F)cc3F)cc2)S1 [Compound C-3],–,–,–,–,–,–,–,–,–,5.4
